Experimental data as given in publication PMC12210912, “Pharmacologic properties and inhibitory activity of 6-azasteroids against Mycobacterium leprae in vivo and in vitro” (Microbiology Spectrum, 2025).

Columns and labels:
[1] = tested on: human type 1 5α-reductase; set-up: method as in PMID 8057283; details: cited from earlier work
in vivo = details: female, Balb/c, mouse, po, 100 mg/kg
Description: Compound 5 was solubilized in 5% DMSO in 10% Solutol with 100 mM citrate buffer (pH 3) and was tested in Balb/c female mice, approximately 8 weeks old and 20 g, at 100 mg/kg with or without 10 mg/kg rifampicin. Mice (n = 3 per group) were treated PO with drug or vehicle once daily at 8 AM. Body weights were measured daily prior to dosing. […] On day 5, mice were sacrificed at 6 h post-dose, and whole blood and plasma were extracted for complete blood count and blood chemistry profiling on an Element HT5 system (Heska, USA) and plasma drug concentration analysis was performed by LC-MS (Sciex API 4500 Triple Quad, Shimadzu LC-30A). Calibration curves were prepared as described above for in vivo metabolism and pharmacokinetics.

M. leprae 3β-HSD [2] = experiment: NAD+ reduction by M. leprae whole cell lysate; format: biochemical, Mycobacterium leprae; details: M. leprae WCL with 200 µM cholesterol, vehicle DMSO mean 1.119
Description: M. leprae whole cell lysate (WCL) was obtained by bead-beating gamma-irradiated M. leprae Strain NHDP (BEI Resources, NR-19326) with 0.1 mm silica beads and FastPrep bead-beater (MP Biomedicals, USA). Homogenization was carried out in three cycles of agitation at 6.5 m/s for 45 s, with the sample being rested on ice for at least 2 min between cycles. The homogenates were centrifuged at 14,000 × g for 5 min to separate the spheres and WCL. The supernatant was recovered, and protein concentration determined using Pierce BCA protein assay (Thermo Fisher Scientific). NAD^+ (200 µM, MilliporeSigma, USA) reduction was measured as previously described using 50 µg (protein) of WCL protein, with the addition of 200 µM of cholesterol (MilliporeSigma) and in the presence or absence of compound 2 (40 and 100 µM) or compound 5 (100 µM) ([10]).

CYP3A4 = target: T1, CYP3A4 (Homo sapiens, UniProt P08684); experiment: inhibition of CYP3A4 enzymatic activity in human liver microsomes; format: in vitro ADME
T1 construct: Human liver microsomes (150 donors pooled, male & female, Corning, Cat# 452117) were used as a source of CYP3A4; tissue Corning 452117; host or cells: pooled human liver microsomes (150 donors)
Description: Inhibition of CYP3A4 enzymatic activity was carried out following a standard protocol by Pharmaron, Inc. Human liver microsomes (150 donors pooled, male & female, Corning, Cat# 452117) were used as a source of CYP3A4. The final concentration of human liver microsomes was 0.2 mg/mL. CYP3A4 was tested with testosterone (stock: 10 mM, final: 50 µM) or midazolam (stock: 1 mM, final: 5 µM) as substrate. Aliquots (1 µL) of test compounds (20 µM final concentration), positive control compound ketoconazole (20 µM final concentration), or buffer blank were transferred to a multi-well plate. The reaction was initiated with the addition of 20 µL of 10 mM NADPH solution to provide a final concentration of 1 mM in a 200 µL total volume and carried out at 37°C. The reaction was stopped by the addition of 1.5 volumes of methanol with incubation solution (100 nM alprazolam, 200 nM imipramine, 200 nM labetalol, and 2 µM ketoprofen) at designated time points (5 min midazolam-mediated CYP3A4; 10 min testosterone-mediated CYP3A4). The plate was centrifuged at 3,220 × g for 40 min to precipitate protein. Aliquots of 100 µL of the supernatant were diluted with 100 µL ultra-pure H2O, and the mixture was used for LC-MS/MS analysis to determine concentration of product (hydroxymidazolam or hydroxytestosterone) formed. The % inhibition was calculated by comparison with no inhibitor control. All experiments were performed in duplicate.

HepG2 cells = details: cited from earlier work
M. leprae [3] = experiment: Shepard's mouse footpad model: bacilli count and molecular viability; format: in vivo, Mycobacterium leprae; details: for M. leprae molecular viability, median (16S rRNA cDNA/DNA, RT-qPCR) / M. leprae molecular viability: Balb/c mice footpad; for M. leprae molecular viability, median (16S rRNA cDNA/DNA, RT-qPCR): 50 mg/kg daily alone, 1 month; for M. leprae molecular viability: 50 mg/kg daily in combination with sub-inhibitory rifampicin 1 mg/kg; for bacillary load in footpad, median: Balb/c mice, 50 mg/kg daily by gavage alone, 1 month (20 doses), vehicle median 8.110 × 10^4
Description: Animal experimentation was conducted under approval by the ILSL ethical committee ([…] 02/19). Balb/c female mice with 8-week-old were inoculated with 5 × 10^3 live M. leprae bacilli, strain Thai-53, in both hind footpads, as previously described for the Shepard's model ([25]). Eight groups were tested in the experiment: (i) M. leprae control group (n = 5) inoculated with M. leprae and no additional treatment; (ii) vehicle control group (n = 4) inoculated with M. leprae and treatment with vehicle of the drugs; (iii) regular rifampicin treatment, 10 mg/Kg dose; […] (v) compound 2 treatment (n = 4), 50 mg/kg dose; […] One month after inoculation, mice from the control group were euthanized and the hind footpad was collected to assess the establishment of the infection by bacillary enumeration. At that time point, vehicle or drug treatment was started for the remaining groups. All compounds were administrated by gavage, rifampicin was administered weekly, and the compounds were administered daily (excluding weekends) for 1 month (20 doses). Mice were euthanized 6 h after administration of the last dose, and blood was collected in heparin-coated tubes by cardiac puncture for blood enzyme evaluation and compound 5 measurement by LC/MS in the plasma. The infected hind footpads from each group of mice were excised, homogenized and bacilli enumerated in a 100 μL aliquot as previously described ([26]). The remaining homogenate was centrifuged at 12,000 × g for 15 min, the supernatant was discarded, and the pellet was suspended in 750 μL of RNA later solution (Thermo Fisher Scientific). The homogenized tissue pellet was incubated at 4°C for 16 h and stored at -80°C until determination of M. leprae viability was performed by RT-qPCR ([27], [28]). […] RNA and DNA extractions were performed as previously described ([10], [27]). RNA samples were treated with the Turbo DNA-free kit (Thermo Fisher Scientific), and 1,000 ng of DNAse-treated RNA was then used to synthesize the cDNA using the GoScript kit (Promega, USA).

M. leprae [4] = experiment: M. leprae viability in axenic medium by radiorespirometry; format: cell-based, Mycobacterium leprae
M. leprae 3β-HSD [5] = experiment: cholestenone production by M. leprae in axenic medium (TLC); format: cell-based; details: Mycobacterium leprae, TLC densitometry, σ printed in brackets
[6] = tested on: human type 2 5α-reductase; set-up: method as in PMID 8057283; details: cited from earlier work
M. leprae [7] = tested on: M. leprae; set-up: method as in PMID 34395315; details: cited from earlier work
M. leprae 3β-HSD [8] = tested on: M. leprae 3β-HSD; set-up: method as in PMID 34395315; details: cited from earlier work

T1 sequence (P08684 whole entry): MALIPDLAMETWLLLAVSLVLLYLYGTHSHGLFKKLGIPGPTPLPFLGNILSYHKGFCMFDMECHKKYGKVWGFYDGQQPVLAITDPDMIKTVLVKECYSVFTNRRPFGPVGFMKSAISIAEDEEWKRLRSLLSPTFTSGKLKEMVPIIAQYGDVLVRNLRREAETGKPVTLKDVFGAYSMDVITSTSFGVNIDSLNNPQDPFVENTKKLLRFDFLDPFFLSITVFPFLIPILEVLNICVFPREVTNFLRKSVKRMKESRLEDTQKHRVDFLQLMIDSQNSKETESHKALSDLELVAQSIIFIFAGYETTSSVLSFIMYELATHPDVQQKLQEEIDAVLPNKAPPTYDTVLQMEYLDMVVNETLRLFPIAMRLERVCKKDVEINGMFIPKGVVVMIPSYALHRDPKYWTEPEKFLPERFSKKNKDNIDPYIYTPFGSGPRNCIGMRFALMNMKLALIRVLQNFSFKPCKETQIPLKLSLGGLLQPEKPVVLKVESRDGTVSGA

| Compound | inhibition of human type 1 5α-reductase [1] | concentration at 6 h (in vivo) [µM] | rate of NAD+ reduction, mean value (ratio absorbance T/absorbance T0) (M. leprae 3β-HSD [2]; 100 µM) | % inhibition observed, Cyp3A4 Midazolam Isoform (CYP3A4; 20 µM, midazolam substrate) | % inhibition observed, Cyp3A4 Testosterone Isoform (CYP3A4; 20 µM, testosterone substrate) | inhibition at 5 min, 20 µM (CYP3A4; both sexes, probe midazolam (5 µM), midazolam substrate, read-out: % inhibition observed, Cyp3A4 Midazolam Isoform) [%] | inhibition at 10 min, 20 µM (CYP3A4; both sexes, probe testosterone (50 µM), testosterone substrate, read-out: % inhibition observed, Cyp3A4 Testosterone Isoform) [%] | IC50 (HepG2 cells) [µM] | M. leprae molecular viability, median (16S rRNA cDNA/DNA, RT-qPCR) (M. leprae [3]) [%] | M. leprae molecular viability (M. leprae [3]) | bacillary load in footpad, median (M. leprae [3]) | effect on M. leprae viability (radiorespirometry) (M. leprae [4]; 100 µM) | inhibition at 100 µM (M. leprae 3β-HSD [5]; 100 μM) [%] | inhibition of human type 2 5α-reductase [6] | intracellular viability of M. leprae in vitro (M. leprae [7]) | M. leprae 3β-HSD activity (cholestenone production in axenic medium) (M. leprae 3β-HSD [8]) | rate of NAD+ reduction, mean value (ratio absorbance T/absorbance T0) (M. leprae 3β-HSD [2]; 40 µM) | effect on M. leprae viability (radiorespirometry) (M. leprae [4]; 40 µM) | inhibition at 40 µM (M. leprae 3β-HSD [5]; 40 μM) [%] |
| --- | --- | --- | --- | --- | --- | --- | --- | --- | --- | --- | --- | --- | --- | --- | --- | --- | --- | --- | --- |
| C[C@]12CCC3C(CNC4=CC(=O)CC[C@@]43C)C1CCC2C(=O)NC(c1ccc(F)cc1)c1ccc(F)cc1 (stereo partly shown) [Compound 5] | nanomolar inhibitor | 292 ± 59 | 0.9070 | strongly inhibits | strongly inhibits | 79 | 68 | 31 | 4.205 | a reduction in bacterial viability was also observed | 7.890 × 10^4 | without significantly affecting bacterial viability | ~25.1 | nanomolar inhibitor |  |  |  |  |  |
| CC(C)(C)c1ccc(C(C)(C)C)c(NC(=O)C2CCC3C4CNC5=CC(=O)CC[C@]5(C)C4CC[C@]23C)c1 (stereo partly shown) [Compound 1] |  |  |  |  |  |  |  |  |  |  |  |  |  |  | reduce the intracellular viability of M. leprae in vitro | inhibits M. leprae 3β-HSD activity |  |  |  |
| CCCN1CC2C3CCC(C(=O)Nc4cc(C(C)(C)C)ccc4C(C)(C)C)[C@@]3(C)CCC2[C@@]2(C)CCC(=O)C=C12 (stereo partly shown) [Compound 2] |  |  | 1.038 |  |  |  |  | 21 | 0.5442 | a reduction in bacterial viability was also observed | 7.885 × 10^4 | drastically reduced M. leprae viability |  |  |  |  | 0.9986 | did not significantly affect M. leprae viability | ~38 |
